Patent publication US11192867B2, “Microbiocidal oxadiazole derivatives” (SYNGENTA PARTICIPATIONS AG, priority 2016, dated 2021)

Tests used:
Phakopsora pachyrhizi = assay: Fungicidal activity against Phakopsora pachyrhizi / soybean / leaf disc preventative (Asian soybean rust); assay type: in vivo; conditions: foliar, 200 ppm in the applied formulation, soybean leaf disks, vs untreated control, read-out: disease control
Protocol: Leaf disks or leaf segments of various plant species are cut from plants grown in a greenhouse. The cut leaf disks or segments are placed in multiwell plates (24-well format) onto water agar. The leaf disks are sprayed with a test solution before (preventative) or after (curative) inoculation. Compounds to be tested are prepared as DMSO solutions (max. 10 mg/ml) which are diluted to the appropriate concentration with 0.025% Tween20 just before spraying. The inoculated leaf disks or segments are incubated under defined conditions (temperature, relative humidity, light, etc.) according to the respective test system. A single evaluation of disease level is carried out 3 to 14 days after inoculation, depending on the pathosystem. Percent disease control relative to the untreated check leaf disks or segments is then calculated. Soybean leaf disks are placed on water agar in multiwell plates (24-well format) and sprayed with the formulated test compound diluted in water. One day after application leaf discs are inoculated by spraying a spore suspension on the lower leaf surface. After an incubation period in a climate cabinet of 24-36 hours in darkness at 20° C. and 75% rh leaf disc are kept at 20° C. with 12 hours light/12 hours and 75% rh. The activity of a compound is assessed as percent disease control compared to untreated when an appropriate level of disease damage appears in untreated check leaf disks (12 to 14 days after application). The following compounds at 200 ppm in the applied formulation give at least 80% disease control in this test when compared to untreated control leaf disks under the same conditions, which show extensive disease development.

[1] = tested on: Glomerella lagenarium (Colletotrichum lagenarium); assay: Fungicidal activity against Glomerella lagenarium (Colletotrichum lagenarium) liquid culture / cucumber / preventative (anthracnose); assay type: cell-based; conditions: Colletotrichum orbiculare, 72 h; 20 ppm in the applied formulation; liquid culture (PDB), growth inhibition measured photometrically 3 to 4 days after application; vs untreated control; read-out: disease control
Protocol: Mycelia fragments or conidia suspensions of a fungus prepared either freshly from liquid cultures of the fungus or from cryogenic storage, are directly mixed into nutrient broth. DMSO solutions of the test compound (max. 10 mg/ml) are diluted with 0.025% Tween20 by a factor of 50 and 10 μl of this solution is pipetted into a microtiter plate (96-well format). The nutrient broth containing the fungal spores/mycelia fragments is then added to give an end concentration of the tested compound. The test plates are incubated in the dark at 24° C. and 96% relative humidity. The inhibition of fungal growth is determined photometrically after 2 to 7 days, depending on the pathosystem, and percent antifungal activity relative to the untreated check is calculated.
Conidia of the fungus from cryogenic storage are directly mixed into nutrient broth (PDB—potato dextrose broth). After placing a (DMSO) solution of test compound into a microtiter plate (96-well format), the nutrient broth containing the fungal spores is added. The test plates are incubated at 24° C. and the inhibition of growth is measured photometrically 3 to 4 days after application.
The following compounds at 20 ppm in the applied formulation give at least 80% disease control in this test when compared to untreated control under the same conditions, which show extensive disease development.

[2] = tested on: Puccinia recondita f. sp. Tritici; assay: Fungicidal activity against Puccinia recondita f. sp. Tritici / wheat / leaf disc preventative (brown rust); assay type: in vivo; conditions: foliar, 200 ppm in the applied formulation, wheat leaf segments cv. Kanzler, inoculated 1 day after application, vs untreated control, read-out: disease control
Protocol: Leaf disks or leaf segments of various plant species are cut from plants grown in a greenhouse. The cut leaf disks or segments are placed in multiwell plates (24-well format) onto water agar. The leaf disks are sprayed with a test solution before (preventative) or after (curative) inoculation. Compounds to be tested are prepared as DMSO solutions (max. 10 mg/ml) which are diluted to the appropriate concentration with 0.025% Tween20 just before spraying. The inoculated leaf disks or segments are incubated under defined conditions (temperature, relative humidity, light, etc.) according to the respective test system. A single evaluation of disease level is carried out 3 to 14 days after inoculation, depending on the pathosystem. Percent disease control relative to the untreated check leaf disks or segments is then calculated. Wheat leaf segments cv. Kanzler were placed on agar in multiwell plates (24-well format) and sprayed with the formulated test compound diluted in water. The leaf disks were inoculated with a spore suspension of the fungus 1 day after application. The inoculated leaf segments were incubated at 19° C. and 75% relative humidity (rh) under a light regime of 12 hours light/12 hours darkness in a climate cabinet and the activity of a compound was assessed as percent disease control compared to untreated when an appropriate level of disease damage appears in untreated check leaf segments (7 to 9 days after application). The following compounds at 200 ppm in the applied formulation give at least 80% disease control in this test when compared to untreated control leaf disks under the same conditions, which show extensive disease development.

SMILES	pest or weed control at 200 ppm (Phakopsora pachyrhizi) [%]	inhibition of growth at 20 ppm [1] [%]	pest or weed control at 200 ppm [2] [%]
CC(C=NOCc1ccccc1Cl)NC(=O)c1ccc(-c2noc(C(F)(F)F)n2)cc1 (stereo not shown) [Compound 1.22, N-[2-[(2-chlorophenyl)methoxyimino]-1-methyl-ethyl]-4-[5-(trifluoromethyl)-1,2,4-oxadiazol-3-yl]benzamide]	≥ 80	≥ 80	
COc1ccccc1CON=CC(C)NC(=O)c1ccc(-c2noc(C(F)(F)F)n2)cc1 (stereo not shown) [Compound 1.23, N-[2-[(2-methoxyphenyl)methoxyimino]-1-methyl-ethyl]-4-[5-(trifluoromethyl)-1,2,4-oxadiazol-3-yl]benzamide]	≥ 80		
CC(C=NOCc1ccccc1F)NC(=O)c1ccc(-c2noc(C(F)(F)F)n2)cc1 (stereo not shown) [Compound 1.24, N-[2-[(2-fluorophenyl)methoxyimino]-1-methyl-ethyl]-4-[5-(trifluoromethyl)-1,2,4-oxadiazol-3-yl]benzamide]	≥ 80	≥ 80	
CCCON=CC(C)NC(=O)c1ccc(-c2noc(C(F)(F)F)n2)cc1 (stereo not shown) [Compound 1.27, N-(1-methyl-2-propoxyimino-ethyl)-4-[5-(trifluoromethyl)-1,2,4-oxadiazol-3-yl]benzamide]	≥ 80	≥ 80	
CC(C=NOCC=C(Cl)Cl)NC(=O)c1ccc(-c2noc(C(F)(F)F)n2)cc1 (stereo not shown) [Compound 1.34, N-[2-(3,3-dichloroallyl-oxyimino)-1-methyl-ethyl]-4-[5-(trifluoromethyl)-1,2,4-oxadiazol-3-yl]benzamide]	≥ 80	≥ 80	
CC(C=NOCc1ccccc1)NC(=O)c1ccc(-c2noc(C(F)(F)F)n2)cc1 (stereo not shown) [Compound 1.47, N-(2-benzyloxyimino-1-methyl-ethyl)-4-[5-(trifluoromethyl)-1,2,4-oxadiazol-3-yl]benzamide]	≥ 80	≥ 80	
CC(C=NOCC(F)(F)F)NC(=O)c1ccc(-c2noc(C(F)(F)F)n2)cc1 (stereo not shown) [Compound 1.51, N-[1-methyl-2-(2,2,2-trifluoroethoxy-imino)ethyl]-4-[5-(trifluoromethyl)-1,2,4-oxadiazol-3-yl]benzamide]	≥ 80	≥ 80	
CC(C=NOCc1ccc(F)cc1)NC(=O)c1ccc(-c2noc(C(F)(F)F)n2)cc1 (stereo not shown) [Compound 1.52, N-[2-[(4-fluorophenyl)methoxyimino]-1-methyl-ethyl]-4-[5-(trifluoromethyl)-1,2,4-oxadiazol-3-yl]benzamide]	≥ 80	≥ 80	
CC(C=NOCC1CC1)NC(=O)c1ccc(-c2noc(C(F)(F)F)n2)cc1 (stereo not shown) [Compound 1.57, N-[2-(cyclopropyl-methoxyimino)-1-methyl-ethyl]-4-[5-(trifluoromethyl)-1,2,4-oxadiazol-3-yl]benzamide]	≥ 80	≥ 80	
CC(C=NOCc1ccc(Cl)cc1)NC(=O)c1ccc(-c2noc(C(F)(F)F)n2)cc1 (stereo not shown) [Compound 1.59, N-[2-[(4-chlorophenyl)methoxyimino]-1-methyl-ethyl]-4-[5-(trifluoromethyl)-1,2,4-oxadiazol-3-yl]benzamide]	≥ 80		
Cc1ccc(CON=CCNC(=O)c2ccc(-c3noc(C(F)(F)F)n3)cc2)cc1 [Compound 1.63, N-[2-(p-tolylmethoxy-imino)ethyl]-4-[5-(trifluoromethyl)-1,2,4-oxadiazol-3-yl]benzamide]	≥ 80		
CCCCCCCCCCCCON=CCNC(=O)c1ccc(-c2noc(C(F)(F)F)n2)cc1 [Compound 1.73, N-(2-dodecoxyimino-ethyl)-4-[5-(trifluoromethyl)-1,2,4-oxadiazol-3-yl]benzamide]	≥ 80		
O=C(NCC=NOCc1c(Cl)cccc1Cl)c1ccc(-c2noc(C(F)(F)F)n2)cc1 [Compound 1.84, N-[2-[(2,6-dichlorophenyl)methoxyimino]ethyl]-4-[5-(trifluoromethyl)-1,2,4-oxadiazol-3-yl]benzamide]	≥ 80		
CCCCON=CCNC(=O)c1ccc(-c2noc(C(F)(F)F)n2)cc1 [Compound 1.85, N-(2-butoxyiminoethyl)-4-[5-(trifluoromethyl)-1,2,4-oxadiazol-3-yl]benzamide]	≥ 80	≥ 80	
O=C(NCC=NOCc1ccc(F)cc1)c1ccc(-c2noc(C(F)(F)F)n2)cc1 [Compound 1.96, N-[2-[(4-fluorophenyl)methoxyimino]ethyl]-4-[5-(trifluoromethyl)-1,2,4-oxadiazol-3-yl]benzamide]		≥ 80	
O=C(NCC=NOCc1cccc(Cl)c1)c1ccc(-c2noc(C(F)(F)F)n2)cc1 [Compound 1.97, N-[2-[(3-chlorophenyl)methoxyimino]ethyl]-4-[5-(trifluoromethyl)-1,2,4-oxadiazol-3-yl]benzamide]			≥ 80
O=C(NCC=NOCc1ccc(Cl)cc1)c1ccc(-c2noc(C(F)(F)F)n2)cc1 [Compound 1.103, N-[2-[(4-chlorophenyl)methoxyimino]ethyl]-4-[5-(trifluoromethyl)-1,2,4-oxadiazol-3-yl]benzamide]			≥ 80
CC(CNC(=O)c1ccc(-c2noc(C(F)(F)F)n2)cc1)=NOCc1ccc([N+](=O)[O-])cc1 [Compound 1.105, N-[2-[(4-nitrophenyl)methoxyimino]propyl]-4-[5-(trifluoromethyl)-1,2,4-oxadiazol-3-yl]benzamide]			≥ 80
COc1ccc(CON=C(C)CNC(=O)c2ccc(-c3noc(C(F)(F)F)n3)cc2)cc1 [Compound 1.108, N-[2-[(4-methoxyphenyl)methoxyimino]propyl]-4-[5-(trifluoromethyl)-1,2,4-oxadiazol-3-yl]benzamide]		≥ 80	
COc1ccccc1CON=C(C)CNC(=O)c1ccc(-c2noc(C(F)(F)F)n2)cc1 [Compound 1.112, N-[2-[(2-methoxyphenyl)methoxyimino]propyl]-4-[5-(trifluoromethyl)-1,2,4-oxadiazol-3-yl]benzamide]		≥ 80	
CCCCON=C(C)CNC(=O)c1ccc(-c2noc(C(F)(F)F)n2)cc1 [Compound 1.128, N-(2-butoxyiminopropyl)-4-[5-(trifluoromethyl)-1,2,4-oxadiazol-3-yl]benzamide]	≥ 80	≥ 80	
CC(CNC(=O)c1ccc(-c2noc(C(F)(F)F)n2)cc1)=NOCc1ccccc1 [Compound 1.134, N-(2-benzyloxyimino-propyl)-4-[5-(trifluoromethyl)-1,2,4-oxadiazol-3-yl]benzamide]	≥ 80	≥ 80	
CC(CNC(=O)c1ccc(-c2noc(C(F)(F)F)n2)cc1)=NOCc1ccc(F)cc1 [Compound 1.140, N-[2-[(4-fluorophenyl)methoxyimino]propyl]-4-[5-(trifluoromethyl)-1,2,4-oxadiazol-3-yl]benzamide]		≥ 80	
